# Assay: (§1) The drug is tested on Z-027 corresponding to metagenome with ENA study accession number: PRJEB37062 and ENA sample accession number: ERS12561826 for biotransformation under anaerobic condition. The drug concentrations were measured over 9 timepoints collected between 0 and 24 hours of incubation by liquid-chromatography-coupled mass spectrometry (LC–MS)
# Settings: 2 µM
# Note: call rule not given here.
row,Bacterial Biotransformation,SMILES
1,Compound metabolized,COc1ccnc(C[S+]([O-])c2nc3ccc(OC(F)F)cc3[nH]2)c1OC (stereo not given) [PANTOPRAZOLE]
2,Compound NOT metabolized,O=C1N=C([O-])NC1(c1ccccc1)c1ccccc1.[Na+] [PHENYTOIN SODIUM]

# Assay: (§2) The drug is tested on Z-019 corresponding to rat gut metagenome with ENA study accession number: PRJEB37062 and ENA sample accession number: ERS12561818 for biotransformation under anaerobic condition. The drug concentrations were measured over 9 timepoints collected between 0 and 24 hours of incubation by liquid-chromatography-coupled mass spectrometry (LC–MS)
# Settings: 2 µM
row,Bacterial Biotransformation,SMILES
1,Compound metabolized,COc1ccnc(C[S+]([O-])c2nc3ccc(OC(F)F)cc3[nH]2)c1OC (stereo not given) [PANTOPRAZOLE]
2,Compound NOT metabolized,O=C1N=C([O-])NC1(c1ccccc1)c1ccccc1.[Na+] [PHENYTOIN SODIUM]

# Assay: as §2, with “on Z-018” for “on Z-019”, “to pig” for “to rat”, “number: ERS12561817” for “number: ERS12561818”
# Settings: 2 µM
row,Bacterial Biotransformation,SMILES
1,Compound metabolized,COc1ccnc(C[S+]([O-])c2nc3ccc(OC(F)F)cc3[nH]2)c1OC (stereo not given) [PANTOPRAZOLE]
2,Compound NOT metabolized,O=C1N=C([O-])NC1(c1ccccc1)c1ccccc1.[Na+] [PHENYTOIN SODIUM]

# Assay: as §2, with “Z-014” for “Z-019”, “ERS12561814” for “ERS12561818”
# Settings: 2 µM
row,Bacterial Biotransformation,SMILES
1,Compound NOT metabolized,COc1ccnc(C[S+]([O-])c2nc3ccc(OC(F)F)cc3[nH]2)c1OC (stereo not given) [PANTOPRAZOLE]
2,Compound NOT metabolized,O=C1N=C([O-])NC1(c1ccccc1)c1ccccc1.[Na+] [PHENYTOIN SODIUM]

# Assay: as §1, with “Z-010” for “Z-027”, “ERS12561810” for “ERS12561826”
# Settings: 2 µM
row,Bacterial Biotransformation,SMILES
1,Compound metabolized,COc1ccnc(C[S+]([O-])c2nc3ccc(OC(F)F)cc3[nH]2)c1OC (stereo not given) [PANTOPRAZOLE]
2,Compound NOT metabolized,O=C1N=C([O-])NC1(c1ccccc1)c1ccccc1.[Na+] [PHENYTOIN SODIUM]

# Assay: as §2, with “on Z-006” for “on Z-019”, “to mouse” for “to rat”, “number: ERS12561806” for “number: ERS12561818”
# Settings: 2 µM
row,Bacterial Biotransformation,SMILES
1,Compound metabolized,COc1ccnc(C[S+]([O-])c2nc3ccc(OC(F)F)cc3[nH]2)c1OC (stereo not given) [PANTOPRAZOLE]
2,Compound NOT metabolized,O=C1N=C([O-])NC1(c1ccccc1)c1ccccc1.[Na+] [PHENYTOIN SODIUM]

# Assay: as §1, with “Z-005” for “Z-027”, “ERS12561805” for “ERS12561826”
# Settings: 2 µM
row,Bacterial Biotransformation,SMILES
1,Compound NOT metabolized,COc1ccnc(C[S+]([O-])c2nc3ccc(OC(F)F)cc3[nH]2)c1OC (stereo not given) [PANTOPRAZOLE]
2,Compound NOT metabolized,O=C1N=C([O-])NC1(c1ccccc1)c1ccccc1.[Na+] [PHENYTOIN SODIUM]

# Assay: as §1, with “Z-004” for “Z-027”, “ERS12561804” for “ERS12561826”
# Settings: 2 µM
row,Bacterial Biotransformation,SMILES
1,Compound metabolized,COc1ccnc(C[S+]([O-])c2nc3ccc(OC(F)F)cc3[nH]2)c1OC (stereo not given) [PANTOPRAZOLE]
2,Compound NOT metabolized,O=C1N=C([O-])NC1(c1ccccc1)c1ccccc1.[Na+] [PHENYTOIN SODIUM]

# Assay: as §2, with “on WLS-370” for “on Z-019”, “to human” for “to rat”, “number: ERS12561793” for “number: ERS12561818”
# Settings: 2 µM
row,Bacterial Biotransformation,SMILES
1,Compound metabolized,COc1ccnc(C[S+]([O-])c2nc3ccc(OC(F)F)cc3[nH]2)c1OC (stereo not given) [PANTOPRAZOLE]
2,Compound metabolized,O=C1N=C([O-])NC1(c1ccccc1)c1ccccc1.[Na+] [PHENYTOIN SODIUM]

# Assay: as §2, with “on WLS-310” for “on Z-019”, “to human” for “to rat”, “number: ERS12561785” for “number: ERS12561818”
# Settings: 2 µM
row,Bacterial Biotransformation,SMILES
1,Compound metabolized,COc1ccnc(C[S+]([O-])c2nc3ccc(OC(F)F)cc3[nH]2)c1OC (stereo not given) [PANTOPRAZOLE]
2,Compound metabolized,O=C1N=C([O-])NC1(c1ccccc1)c1ccccc1.[Na+] [PHENYTOIN SODIUM]

# Assay: as §2, with “on WLS-086” for “on Z-019”, “to human” for “to rat”, “number: ERS12561752” for “number: ERS12561818”
# Settings: 2 µM
row,Bacterial Biotransformation,SMILES
1,Compound metabolized,COc1ccnc(C[S+]([O-])c2nc3ccc(OC(F)F)cc3[nH]2)c1OC (stereo not given) [PANTOPRAZOLE]
2,Compound metabolized,O=C1N=C([O-])NC1(c1ccccc1)c1ccccc1.[Na+] [PHENYTOIN SODIUM]

# Assay: as §2, with “on WLS-010” for “on Z-019”, “to human” for “to rat”, “number: ERS12561743” for “number: ERS12561818”
# Settings: 2 µM
row,Bacterial Biotransformation,SMILES
1,Compound metabolized,COc1ccnc(C[S+]([O-])c2nc3ccc(OC(F)F)cc3[nH]2)c1OC (stereo not given) [PANTOPRAZOLE]
2,Compound metabolized,O=C1N=C([O-])NC1(c1ccccc1)c1ccccc1.[Na+] [PHENYTOIN SODIUM]

# Assay: as §2, with “on WLS-007” for “on Z-019”, “to human” for “to rat”, “number: ERS12561742” for “number: ERS12561818”
# Settings: 2 µM
row,Bacterial Biotransformation,SMILES
1,Compound metabolized,COc1ccnc(C[S+]([O-])c2nc3ccc(OC(F)F)cc3[nH]2)c1OC (stereo not given) [PANTOPRAZOLE]
2,Compound metabolized,O=C1N=C([O-])NC1(c1ccccc1)c1ccccc1.[Na+] [PHENYTOIN SODIUM]

# Settings: human gut metagenome, 24 h, 2 µM
row,Bacterial Biotransformation,SMILES
1,Compound metabolized,COc1ccnc(C[S+]([O-])c2nc3ccc(OC(F)F)cc3[nH]2)c1OC (stereo not given) [PANTOPRAZOLE]
2,Compound NOT metabolized,O=C1N=C([O-])NC1(c1ccccc1)c1ccccc1.[Na+] [PHENYTOIN SODIUM]

# Settings: human gut metagenome, 24 h, 2 µM
# Remark: another data set of the same source
row,Bacterial Biotransformation,SMILES
1,Compound metabolized,COc1ccnc(C[S+]([O-])c2nc3ccc(OC(F)F)cc3[nH]2)c1OC (stereo not given) [PANTOPRAZOLE]
2,Compound metabolized,O=C1N=C([O-])NC1(c1ccccc1)c1ccccc1.[Na+] [PHENYTOIN SODIUM]

# Settings: human gut metagenome, 24 h, 2 µM
# Remark: another data set of the same source
row,Bacterial Biotransformation,SMILES
1,Compound metabolized,COc1ccnc(C[S+]([O-])c2nc3ccc(OC(F)F)cc3[nH]2)c1OC (stereo not given) [PANTOPRAZOLE]
2,Compound metabolized,O=C1N=C([O-])NC1(c1ccccc1)c1ccccc1.[Na+] [PHENYTOIN SODIUM]

# Settings: human gut metagenome, 24 h, 2 µM
# Remark: another data set of the same source
row,Bacterial Biotransformation,SMILES
1,Compound metabolized,COc1ccnc(C[S+]([O-])c2nc3ccc(OC(F)F)cc3[nH]2)c1OC (stereo not given) [PANTOPRAZOLE]
2,Compound NOT metabolized,O=C1N=C([O-])NC1(c1ccccc1)c1ccccc1.[Na+] [PHENYTOIN SODIUM]

# Settings: human gut metagenome, 24 h, 2 µM
# Remark: another data set of the same source
row,Bacterial Biotransformation,SMILES
1,Compound NOT metabolized,COc1ccnc(C[S+]([O-])c2nc3ccc(OC(F)F)cc3[nH]2)c1OC (stereo not given) [PANTOPRAZOLE]
2,Compound NOT metabolized,O=C1N=C([O-])NC1(c1ccccc1)c1ccccc1.[Na+] [PHENYTOIN SODIUM]

# Settings: human gut metagenome, 24 h, 2 µM
# Remark: another data set of the same source
row,Bacterial Biotransformation,SMILES
1,Compound metabolized,COc1ccnc(C[S+]([O-])c2nc3ccc(OC(F)F)cc3[nH]2)c1OC (stereo not given) [PANTOPRAZOLE]
2,Compound metabolized,O=C1N=C([O-])NC1(c1ccccc1)c1ccccc1.[Na+] [PHENYTOIN SODIUM]

# Settings: human gut metagenome, 24 h, 2 µM
# Remark: another data set of the same source
row,Bacterial Biotransformation,SMILES
1,Compound metabolized,COc1ccnc(C[S+]([O-])c2nc3ccc(OC(F)F)cc3[nH]2)c1OC (stereo not given) [PANTOPRAZOLE]
2,Compound metabolized,O=C1N=C([O-])NC1(c1ccccc1)c1ccccc1.[Na+] [PHENYTOIN SODIUM]

# Source: ChEMBL document CHEMBL5724914, “Linking interpersonal differences in gut microbiota composition and drug biotransformation activity” (2024)
